Target: Protein cereblon/Interleukin-1 receptor-associated kinase 4 (Homo sapiens, UniProt Q9NWZ3+Q96SW2)
Assay: Protac activity at E3 ubiquitin ligase/IRAK4 in human OCILY10 cells assessed as degradation of IRAK4 incubated for 4 hr by MSD assay
Format: cell-based

Sequence of Protein cereblon/Interleukin-1 receptor-associated kinase 4 (Q9NWZ3 whole entry): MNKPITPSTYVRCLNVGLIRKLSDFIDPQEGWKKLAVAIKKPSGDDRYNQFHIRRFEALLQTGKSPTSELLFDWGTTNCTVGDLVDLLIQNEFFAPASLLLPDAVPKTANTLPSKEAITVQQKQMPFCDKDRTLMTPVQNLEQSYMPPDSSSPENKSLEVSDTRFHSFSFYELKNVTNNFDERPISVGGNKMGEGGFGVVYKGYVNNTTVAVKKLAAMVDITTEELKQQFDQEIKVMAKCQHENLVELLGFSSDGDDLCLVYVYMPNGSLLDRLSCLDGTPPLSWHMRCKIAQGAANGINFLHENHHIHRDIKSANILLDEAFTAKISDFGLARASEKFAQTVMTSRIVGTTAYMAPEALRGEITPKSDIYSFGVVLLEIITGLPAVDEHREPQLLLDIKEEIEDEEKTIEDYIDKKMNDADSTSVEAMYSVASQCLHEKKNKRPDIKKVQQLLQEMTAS
Sequence of Protein cereblon/Interleukin-1 receptor-associated kinase 4 (Q96SW2 whole entry): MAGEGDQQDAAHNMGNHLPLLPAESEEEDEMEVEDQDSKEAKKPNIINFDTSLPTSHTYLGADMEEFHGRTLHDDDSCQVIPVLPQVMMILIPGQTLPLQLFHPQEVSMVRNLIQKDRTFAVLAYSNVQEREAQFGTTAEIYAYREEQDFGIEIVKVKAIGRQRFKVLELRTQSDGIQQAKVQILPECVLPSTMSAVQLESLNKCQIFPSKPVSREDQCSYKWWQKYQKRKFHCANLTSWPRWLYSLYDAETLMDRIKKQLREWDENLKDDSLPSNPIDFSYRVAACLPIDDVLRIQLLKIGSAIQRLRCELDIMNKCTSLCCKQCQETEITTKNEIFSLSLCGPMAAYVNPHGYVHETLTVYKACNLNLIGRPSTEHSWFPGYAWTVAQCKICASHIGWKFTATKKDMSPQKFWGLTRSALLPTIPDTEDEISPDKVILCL

Row | DC50 [nM] | SMILES
1 | < 10 | COc1cc2nn([C@H]3CC[C@H](CN(C)C4CCN(c5ccc6c(N7CCC(=O)NC7=O)cncc6c5)CC4)CC3)cc2cc1NC(=O)c1cccc(C(F)(F)F)n1
2 | < 10 | CN(C[C@H]1CC[C@H](n2cc3cc(NC(=O)c4cccc(C(F)(F)F)n4)c(C(C)(C)O)cc3n2)CC1)C1CCN(c2ccn3c(N4CCC(=O)NC4=O)cnc3c2)CC1
3 | < 10 | COc1cc2nc([C@H]3CC[C@H](CN4CCC(c5ccn6c(N7CCC(=O)NC7=O)cnc6c5)CC4)CC3)sc2cc1NC(=O)c1cccc(C(F)(F)F)n1
4 | < 10 | CN(C[C@H]1CC[C@H](n2cc3cc(NC(=O)c4cccc(C(F)(F)F)n4)ccc3n2)CC1)C1CCN(c2ccn3c(N4CCC(=O)NC4=O)cnc3c2)CC1
5 | < 10 | CN(C[C@H]1CC[C@H](n2cc3cc(NC(=O)c4cccc(C(F)(F)F)n4)ncc3n2)CC1)C1CCN(c2ccn3c(N4CCC(=O)NC4=O)cnc3c2)CC1
6 | < 10 | CN(C[C@H]1CC[C@H](n2cc3cc(NC(=O)c4cccc(C(F)(F)F)n4)c(C(C)(C)O)cc3n2)CC1)C1CCN(c2ccc3c(N4CCC(=O)NC4=O)cncc3c2)CC1
